Test results reported in PubChem BioAssay AID2060890 (Molecular Pharmacology Branch, DTP, NCI, 2025).

Test system: LG0703-F948-PDC complex spheroid viability
Assay: Anticancer human tumor LG0703-F948-PDC patient-derived lung adenocarcinoma cell line growth inhibition [RAS]
Conditions: for IC50: curve of first compound; for viability, T/C: stronger effect = lower value; active means viability on the fitted dose curve at most 10% of control; inactive means the rest
In short: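 Agents were tested in combination matrices in half-log decrements from a top concentration at or near clinical Cmax (10 microM if undetermined). Targets were multi-cell spheroids of tumour lines plus HUVEC and MSC stromal cells.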
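Further: spheroids exposed to agents for 7 days.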
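Wherever viability, T/C is given: 100% = DMSO vehicle wells.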

CC(C)n1nc(-c2ccc3oc(N)nc3c2)c2c(N)ncnc21 + C#Cc1c(F)ccc2cc(O)cc(-c3ncc4c(N5CC6CCC(C5)N6)nc(OCC56CCCN5CC(F)C6)nc4c3F)c12
0.608 nM: IC50 (second compound 3.16 µM)
2.13 nM: IC50 (second compound 1 µM)
inactive: viability, T/C (second compound 0.0316 µM, first compound 0.000316 µM) 90.7% | viability, T/C (second compound 0.0316 µM, first compound 0.001 µM) 82.5% | viability, T/C (second compound 0.0316 µM, first compound 0.00316 µM) 59.2% | viability, T/C (second compound 0.0316 µM, first compound 0.01 µM) 32% | viability, T/C (second compound 0.0316 µM, first compound 0.0316 µM) 18% | viability, T/C (second compound 0.0316 µM, first compound 0.1 µM) 12.3% | viability, T/C (second compound 0.1 µM, first compound 0.000316 µM) 80.7% | viability, T/C (second compound 0.1 µM, first compound 0.001 µM) 85.6% | viability, T/C (second compound 0.1 µM, first compound 0.00316 µM) 47.7% | viability, T/C (second compound 0.1 µM, first compound 0.01 µM) 34% | viability, T/C (second compound 0.1 µM, first compound 0.0316 µM) 19.7% | viability, T/C (second compound 0.1 µM, first compound 0.1 µM) 11% | viability, T/C (second compound 0.316 µM, first compound 0.000316 µM) 88.3% | viability, T/C (second compound 0.316 µM, first compound 0.001 µM) 75.3% | viability, T/C (second compound 0.316 µM, first compound 0.00316 µM) 57.6% | viability, T/C (second compound 0.316 µM, first compound 0.01 µM) 27.1% | viability, T/C (second compound 0.316 µM, first compound 0.0316 µM) 11.2% | viability, T/C (second compound 1 µM, first compound 0.000316 µM) 67.6% | viability, T/C (second compound 1 µM, first compound 0.001 µM) 51% | viability, T/C (second compound 1 µM, first compound 0.00316 µM) 50.2% | viability, T/C (second compound 1 µM, first compound 0.01 µM) 21.1% | viability, T/C (second compound 3.16 µM, first compound 0.000316 µM) 58.6% | viability, T/C (second compound 3.16 µM, first compound 0.001 µM) 44.2% | viability, T/C (second compound 3.16 µM, first compound 0.00316 µM) 23.4% | viability, T/C (second compound 3.16 µM, first compound 0.01 µM) 13.9% | viability, T/C (second compound 10 µM, first compound 0.000316 µM) 50.9% | viability, T/C (second compound 10 µM, first compound 0.001 µM) 37.8% | viability, T/C (second compound 10 µM, first compound 0.00316 µM) 16.5%
active: viability, T/C (second compound 0.316 µM, first compound 0.1 µM) 8.26% | viability, T/C (second compound 1 µM, first compound 0.0316 µM) 9.33% | viability, T/C (second compound 1 µM, first compound 0.1 µM) 5.14% | viability, T/C (second compound 3.16 µM, first compound 0.0316 µM) 5.52% | viability, T/C (second compound 3.16 µM, first compound 0.1 µM) 3.09% | viability, T/C (second compound 10 µM, first compound 0.01 µM) 4.6% | viability, T/C (second compound 10 µM, first compound 0.0316 µM) 2.45% | viability, T/C (second compound 10 µM, first compound 0.1 µM) 0.63%
0.343 nM: IC50 (second compound 10 µM)
4.71 nM: IC50 (second compound 0.0316 µM)
3.96 nM: IC50 (second compound 0.1 µM)
3.99 nM: IC50 (second compound 0.316 µM)

CC1(C)CCC(Nc2ncc(C(F)(F)F)c(-c3c[nH]c4c(P(C)(C)=O)c(C#N)ccc34)n2)CN1 (centres undefined) + CCn1c(-c2cccnc2C(C)OC)c2c3cc(ccc31)N1CCOC(CC(NC(=O)C(C(C)C)N(C)C(=O)C3(F)CCN(C(=O)C#CC(C)(C)N(C)C)CC3)C(=O)N3CCCC(N3)C(=O)OCC(C)(C)C2)C1
inactive: viability, T/C (second compound 0.000949 µM, first compound 0.000949 µM) 83.4% | viability, T/C (second compound 0.000949 µM, first compound 0.003 µM) 70.4% | viability, T/C (second compound 0.000949 µM, first compound 0.00949 µM) 67.1% | viability, T/C (second compound 0.000949 µM, first compound 0.03 µM) 60.1% | viability, T/C (second compound 0.000949 µM, first compound 0.0949 µM) 67.3% | viability, T/C (second compound 0.000949 µM, first compound 0.3 µM) 56.5% | viability, T/C (second compound 0.003 µM, first compound 0.000949 µM) 89.2% | viability, T/C (second compound 0.003 µM, first compound 0.003 µM) 84.9% | viability, T/C (second compound 0.003 µM, first compound 0.00949 µM) 58.1% | viability, T/C (second compound 0.003 µM, first compound 0.03 µM) 62.2% | viability, T/C (second compound 0.003 µM, first compound 0.0949 µM) 61.5% | viability, T/C (second compound 0.003 µM, first compound 0.3 µM) 68.7% | viability, T/C (second compound 0.00949 µM, first compound 0.000949 µM) 75% | viability, T/C (second compound 0.00949 µM, first compound 0.003 µM) 72.7% | viability, T/C (second compound 0.00949 µM, first compound 0.00949 µM) 77.8% | viability, T/C (second compound 0.00949 µM, first compound 0.03 µM) 57.7% | viability, T/C (second compound 0.00949 µM, first compound 0.0949 µM) 64.8% | viability, T/C (second compound 0.00949 µM, first compound 0.3 µM) 67.2% | viability, T/C (second compound 0.03 µM, first compound 0.000949 µM) 86.5% | viability, T/C (second compound 0.03 µM, first compound 0.003 µM) 79.5% | viability, T/C (second compound 0.03 µM, first compound 0.00949 µM) 62.6% | viability, T/C (second compound 0.03 µM, first compound 0.03 µM) 66.1% | viability, T/C (second compound 0.03 µM, first compound 0.0949 µM) 59.4% | viability, T/C (second compound 0.03 µM, first compound 0.3 µM) 60.4% | viability, T/C (second compound 0.0949 µM, first compound 0.000949 µM) 82.9% | viability, T/C (second compound 0.0949 µM, first compound 0.003 µM) 68.2% | viability, T/C (second compound 0.0949 µM, first compound 0.00949 µM) 65% | viability, T/C (second compound 0.0949 µM, first compound 0.03 µM) 55% | viability, T/C (second compound 0.0949 µM, first compound 0.0949 µM) 65.7% | viability, T/C (second compound 0.0949 µM, first compound 0.3 µM) 63.7% | viability, T/C (second compound 0.3 µM, first compound 0.000949 µM) 39.1% | viability, T/C (second compound 0.3 µM, first compound 0.003 µM) 49.9% | viability, T/C (second compound 0.3 µM, first compound 0.00949 µM) 48.5% | viability, T/C (second compound 0.3 µM, first compound 0.03 µM) 46.1% | viability, T/C (second compound 0.3 µM, first compound 0.0949 µM) 48.8% | viability, T/C (second compound 0.3 µM, first compound 0.3 µM) 46.2%
> 300 nM: IC50 (second compound 0.000949 µM) | IC50 (second compound 0.003 µM) | IC50 (second compound 0.00949 µM) | IC50 (second compound 0.03 µM) | IC50 (second compound 0.0949 µM)
< 0.949 nM: IC50 (second compound 0.3 µM)
